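Each compound was tested at five concentrations against cells in 96-well plates for 48 hours. Definition used: TGI = concentration required for complete inhibition of growth.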
Legend:
Assay in all cases: DTP human tumour cell line panel, 48 h
OVCAR-3 ovarian = system: OVCAR-3 ovarian
SK-OV-3 ovarian = system: SK-OV-3 ovarian
MDA-MB-231 breast = system: MDA-MB-231 breast
CAKI-1 renal = system: CAKI-1 renal
OVCAR-4 ovarian = system: OVCAR-4 ovarian
OVCAR-5 ovarian = system: OVCAR-5 ovarian
HOP-62 NSCLC = system: HOP-62 NSCLC
KM12 colon = system: KM12 colon
MALME-3M melanoma = system: MALME-3M melanoma
HS 578T breast = system: HS 578T breast

Measured: TGI

COc1ccc(OC)c2c(/C=C/c3ccc(N(C)C)cc3)ccnc12
> 10 µM: OVCAR-3 ovarian | SK-OV-3 ovarian | MDA-MB-231 breast | CAKI-1 renal | OVCAR-4 ovarian | OVCAR-5 ovarian | HOP-62 NSCLC | KM12 colon | MALME-3M melanoma | HS 578T breast
